Source: patent US11548925B2, “CACNA1H-derived tumor antigen polypeptide and use thereof” (Genoimmune Therapeutics Co., Ltd., priority 2016, dated 2023)

Tests used:
T2 cells = assay: LDH release assay, killing of peptide-loaded T2 target cells by CD8+ T cells; assay type: cell-based, human; conditions: for Killing efficiency: 4 h
Experimental: The cells cultured in Example 3 were co-cultured with T2 cells loaded with the mutant peptides of the present invention or the wild-type peptide or without a peptide. A maximum release well, a volume correction well, a medium control well, a spontaneous release well and control wells for example at different effector-to-target ratios (ratios of T cells to T2 cells) were set in this experiment. Three replicate wells were set for each group. After 4 h, 50 μl of the co-culture supernatant was taken out and added to 50 μl of LDH substrate mixture to catalyze the reaction of LDH substrate. Finally, the plates were read at a wavelength of 490 nm, with a reference wavelength of 680 nm, and the killing activity against target cells T2 was calculated based on the control wells.
The formula for calculating the killing activity is: Killing efficiency (%)=(test well−spontaneous release of effector cells−spontaneous release of target cells+medium well)/(maximum release of target cells−volume correction well−spontaneous release of target cells+medium well)×100%

[1] = test system: H2087-TLISSLMPI (SEQ ID NO: 2) subcutaneous tumor; assay: Peptide-specific DC-CTL vaccine in H2087-[…] tumor model; assay type: in vivo, NOD/SCID mice; conditions: DC-CTL activated by peptide, tail vein, about 1×10^8 cells; vs wild-type peptide group
Experimental: The human non-small cell lung adenocarcinoma cell line H2087-[…] (SEQ ID NO: 2) as established in Example 7 was cultured in DMEM medium containing 10% fetal bovine serum, 100 U/mL penicillin and 100 U/mL streptomycin in an incubator at 37° C., 5% CO2. H2087-[…] (SEQ ID NO: 2) tumor cells were collected, centrifuged at 1500 rpm for 5 min, and washed 3 times with sterile physiological saline. The tumor cells were diluted appropriately. To 40 μl of cell suspension was added 10 μl of 0.4% […] for staining and microscopically counting cells. A tumor cell suspension at a concentration of 1*10^8 cells/ml was prepared. 100 μl of the tumor cell suspension was inoculated subcutaneously into a NOD/SCID mouse or an immune-reconstituted NOD/SCID mouse. […] The long diameter a and the short diameter b of the tumor were measured with a vernier caliper every 2-3 days and the size of the tumor was calculated as a*b*b/2. The mice and tumors were weighed and recorded every day. […] The tumor volume and the survival rate of mice were recorded every 2 days. […]
The collected PBLs were subjected to magnetic bead sorting to obtain CD8+ T cells, which were sensitized by co-incubation with DCs loaded with the wild-type peptide, DCs loaded with the mutant peptide […] […] The number of lymphocytes was counted and a cell proliferation index (PI) was calculated on days 0, 7, 14, and 21 of culture, respectively. […]

[2] = test system: H2087-TLISSLMPI (SEQ ID NO: 2) subcutaneous tumor; assay: Peptide + Freund's adjuvant vaccine in H2087-[…] subcutaneous tumor model; assay type: in vivo, NOD/SCID mice; conditions: peptide 100 μg/mouse + Freund's adjuvant s.c., 4 immunizations; vs adjuvant alone and wild-type peptide
Experimental: 600-900 ml of anticoagulated peripheral blood was collected from healthy volunteers for isolating peripheral blood mononuclear cells (PBMCs) via Ficoll. Cells were collected for use. 2×10^7 PBMCs per 0.5 ml was intraperitoneally injected into each of 300 NOD SCID mice without immune leakage to perform human immune reconstitution in NOD SCID mice. After 4 weeks, the mice were selected to be inoculated with the human lung cancer cell line.
The human non-small cell lung adenocarcinoma cell line H2087-[…] (SEQ ID NO: 2) as established in Example 7 was cultured in DMEM medium containing 10% fetal bovine serum, 100 U/mL penicillin and 100 U/mL streptomycin in an incubator at 37° C., 5% CO2. H2087-[…] (SEQ ID NO: 2) tumor cells were collected, centrifuged at 1500 rpm for 5 min, and washed 3 times with sterile physiological saline. The tumor cells were diluted appropriately. […] The long diameter a and the short diameter b of the tumor were measured with a vernier caliper every 2-3 days and the size of the tumor was calculated as a*b*b/2. The mice and tumors were weighed and recorded every day. […] The tumor volume and the survival rate of mice were recorded every 2 days.
The H2087-[…] […] The longest diameter (a) and the shortest diameter (b) of a tumor were measured with a vernier caliper every 2 days. Tumor volume was calculated as: ½×length×width^2. […]

TLISSLMPI [tumor antigen peptide from CACNA1H mutation, position 1428 arginine to methionine]
Killing efficiency (T2 cells; effector-to-target ratio 1:1, target T2 loaded with TLISSLMPI): 7.96%
Killing efficiency (T2 cells; effector-to-target ratio 1:1, target T2 loaded with wild-type TLISSLRPI): 2.23%
Killing efficiency (T2 cells; effector-to-target ratio 10:1, target T2 loaded with TLISSLMPI): 38.89%
Killing efficiency (T2 cells; effector-to-target ratio 10:1, target T2 loaded with wild-type TLISSLRPI): 4.23%
Specific killing of target cells (in words) (T2 cells; effector-to-target ratio of 1:1 or 1:10 as printed): capable of killing T2 cells presenting the mutant peptide, but not the T2 cells presenting a wild-type peptide
Survival period of mice [1]: prolonged the survival period of mice
Tumor-suppressing effect [1]: significant tumor-suppressing effects
Survival period of mice [2]: prolonged the survival period of mice
Tumor growth [2]: effectively inhibited tumor growth
